Target: FKBP (Homo sapiens, UniProt P62942)
Assay: PPIase Inhibition Assay
Format: biochemical
Settings: concentration of inhibitor required for 50% inhibition of enzyme activity; FKBP, substrate Succinyl-Ala-Phe-Pro-Phe-para-nitroanilide; TABLE I
Summary of the method: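 Chymotrypsin-coupled isomerization of Succinyl-Ala-Phe-Pro-Phe-para-nitroanilide by FKBP in ice-cold 25 mM HEPES pH 7.8, 100 mM NaCl, compound in DMSO. A390 followed 90 sec; first-order rate constants give % activity remaining after subtracting uncatalyzed rate; IC50 by linear regression of V-/V+ versus concentration.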

FKBP, sequence (P62942 whole entry): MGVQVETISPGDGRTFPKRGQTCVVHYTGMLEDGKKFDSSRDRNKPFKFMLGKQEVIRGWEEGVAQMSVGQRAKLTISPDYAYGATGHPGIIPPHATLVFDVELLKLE

Row | SMILES | IC50
1 | CC[C@H](C)[C@H](NC(=O)[C@@H]1CCCN1CC(=O)NC1C2CC3CC(C2)CC1C3)C(=O)NCc1ccccc1 (stereo partly drawn) [Example 90, L-Isoleucine, N-[1-(Adamantan-2-ylcarbamoylmethyl)-L-Prolyl] Benzylamide] | < 5000 nM
2 | CC[C@H](C)[C@H](NC(=O)[C@@H]1CCCN1CC(=O)C1CC2CC(C1C)C2(C)C)C(=O)NCc1ccccc1 (stereo partly drawn) [Example 41, L-Isoleucine, N-[1-[2-(2,6,6-Trimethyl-Bicyclo[3.1.1]hept-3-yl)-2-Oxoethyl]-L-Prolyl] Benzylamide] | < 5000 nM
3 | CC[C@H](C)[C@H](NC(=O)[C@@H]1CCCN1CC(=O)NC12CC3CC(CC(C3)C1)C2)C(=O)NCc1ccccc1 [Example 39, L-Isoleucine, N-[1-(2-Aminoadamant-1-yl-2-oxoethyl)-L-Prolyl] Benzylamide] | 15000 nM

Now from value to compound:

Row | IC50 | SMILES
4 | 100 nM | CC[C@H](C)[C@H](NC(=O)[C@@H]1CCCN1CC(=O)C12CC3CC(CC(C3)C1)C2)C(=O)N[C@H](C)c1ccccc1 [Example 66, L-Isoleucine, N-[1-(2-Adamantan-1-yl-2-Oxoethyl)-L-Prolyl] alpha-(R)-methylbenzylamide]
5 | 1200 nM | CC[C@H](C)[C@H](NC(=O)[C@@H]1CCCN1CC(=O)O[C@@H](c1ccccc1)C(C)C)C(=O)NCc1ccccc1 [Example 93, L-Isoleucine, N-[1-(2-(2-Methyl-1-(R)-Phenyl-1-Propoxy)-2-Oxoethyl)-L-Prolyl] Benzylamide]
6 | 300 nM | O=C(CC(NC(=O)[C@@H]1CCCN1CC(=O)C12CC3CC(CC(C3)C1)C2)c1ccccc1)NCc1ccccc1 (stereo partly drawn) [Example 63, L-β-Phenylalanine, N-[1-(2-Adamantan-1-yl-2-Oxoethyl)-L-Prolyl] Benzylamide]
7 | 600 nM | CC[C@H](C)[C@H](NC(=O)[C@@H]1CCCN1CC(=O)O[C@H](c1ccccc1)C(C)C)C(=O)NCc1ccccc1 [Example 92, L-Isoleucine, N-[1-(2-(2-Methyl-1-(S)-Phenyl-1-Propoxy)-2-Oxoethyl)-L-Prolyl] Benzylamide]
8 | 1300 nM | O=C(NCc1ccccc1)[C@H](COCc1ccccc1)NC(=O)[C@@H]1CCCN1CC(=O)C12CC3CC(CC(C3)C1)C2 [Example 62, L-Serine-(O-Benzyl Ether), N-[1-(2-Adamantan-1-yl-2-Oxoethyl)-L-Prolyl] Benzylamide]

Reference: US5686424A, “2-oxoethyl derivatives as immunosuppressants” (Miles Inc., priority 1995, dated 1997)
